Source: patent US20080132510A1, “Imidazolylmethyl and Pyrazolylmethyl Heteroaryl Derivatives” (priority 2005, published 2008)

Target: benzodiazepine site of the GABAA receptor
Assay: Ligand binding assay (3H-Ro15-1788 displacement, purified rat cortical membranes)
Settings: previously determined; used in the Cheng-Prusoff equation; read-out: binding dissociation constant (Kd) of the radioligand

CCOC(=O)c1ncn2c1CN(C)C(=O)c1cc(F)ccc1-2 [^3H—R15-1788]
Kd: 1 nM
